# Laboratory results as given in PubChem BioAssay AID1963858 (Molecular Pharmacology Branch, DTP, NCI, 2024).
# “And” between values parts separate entries of the source, which are not always exact repeats. Equal values may be shown once. The source made the active and inactive calls. The calls were made as follows: active = viability on the fitted dose curve at most 10% of control; inactive = the rest.
# Tested on: HOP-62 multicell spheroids with HUVEC/MSC, viability
# Assay: Anticancer human tumor HOP-62 cell line growth inhibition [KRAS2];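 as to IC50: viability read after a week of compound exposure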;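 as to viability, T/C: viability read after a week of compound exposure; 100% = DMSO vehicle-treated spheroids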
# Settings: for viability, T/C: stronger effect = lower value
# Method in brief: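 KRAS-mutant tumor cells were grown as spheroids with HUVEC endothelial cells and human MSCs as stroma. Targeted agents were tested alone and with KRAS pathway inhibitors. Doses started at or near clinical Cmax, or 10 microM, descending half-log.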
# [1] = curve of first compound, second compound 0.1 µM
# [2] = curve of first compound, second compound 0.316 µM
# [3] = curve of first compound, second compound 1 µM
# [4] = curve of first compound, second compound 3.16 µM
# [5] = curve of first compound, second compound 10 µM
# [6] = second compound 0.1 µM, first compound 0.0316 µM
# [7] = second compound 0.1 µM, first compound 0.1 µM
# [8] = second compound 0.1 µM, first compound 0.316 µM
# [9] = second compound 0.1 µM, first compound 1 µM
# [10] = second compound 0.1 µM, first compound 3.16 µM
# [11] = second compound 0.1 µM, first compound 10 µM
# [12] = second compound 0.316 µM, first compound 0.0316 µM
# [13] = second compound 0.316 µM, first compound 0.1 µM
# [14] = second compound 0.316 µM, first compound 0.316 µM
# [15] = second compound 0.316 µM, first compound 1 µM
# [16] = second compound 0.316 µM, first compound 3.16 µM
# [17] = second compound 0.316 µM, first compound 10 µM
# [18] = second compound 1 µM, first compound 0.0316 µM
# [19] = second compound 1 µM, first compound 0.1 µM
# [20] = second compound 1 µM, first compound 0.316 µM
# [21] = second compound 1 µM, first compound 1 µM
# [22] = second compound 1 µM, first compound 3.16 µM
# [23] = second compound 1 µM, first compound 10 µM
# [24] = second compound 3.16 µM, first compound 0.0316 µM
# [25] = second compound 3.16 µM, first compound 0.1 µM
# [26] = second compound 3.16 µM, first compound 0.316 µM
# [27] = second compound 3.16 µM, first compound 1 µM
# [28] = second compound 3.16 µM, first compound 3.16 µM
# [29] = second compound 3.16 µM, first compound 10 µM
# [30] = second compound 10 µM, first compound 0.0316 µM
# [31] = second compound 10 µM, first compound 0.1 µM
# [32] = second compound 10 µM, first compound 0.316 µM
# [33] = second compound 10 µM, first compound 1 µM
# [34] = second compound 10 µM, first compound 3.16 µM
# [35] = second compound 10 µM, first compound 10 µM
SMILES,IC50 [1] [nM],IC50 [2] [nM],IC50 [3] [nM],IC50 [4] [nM],IC50 [5] [nM],"viability, T/C [6] [%]","viability, T/C [7] [%]","viability, T/C [8] [%]","viability, T/C [9] [%]","viability, T/C [10] [%]","viability, T/C [11] [%]","viability, T/C [12] [%]","viability, T/C [13] [%]","viability, T/C [14] [%]","viability, T/C [18] [%]","viability, T/C [19] [%]","viability, T/C [24] [%]","viability, T/C [25] [%]","viability, T/C [30] [%]","viability, T/C [31] [%]",also measured
CC1OCC2(CCN(c3cnc(Sc4ccnc(N)c4Cl)c(N)n3)CC2)C1N (stereo unspecified) + CNCc1ccccc1-c1csc(C(C)Nc2nc(C)nc3cc(OC)c(OC)cc23)c1,> 10000,> 10000,638,< 31.6,< 31.6,89.8,80.4,74.1,67.5,65.3,58.8,85.5,88,69.2,82.3,76.2,34.3,7.49,0.13,0.17,"viability, T/C [15]: 53.6%; viability, T/C [16]: 52.3%; viability, T/C [17]: 49.7%; viability, T/C [20]: 58.8%; viability, T/C [21]: 45.4%; viability, T/C [22]: 33.5%; viability, T/C [23]: 34.1%; viability, T/C [26]: 0.61%; viability, T/C [27]: 0.1%; viability, T/C [28]: 0.15%; viability, T/C [29]: 0.15%; viability, T/C [32]: 0.09%; viability, T/C [33]: 0.09%; viability, T/C [34]: 0.6%; viability, T/C [35]: 0.16%"
Cn1nccc1Nc1nccc(-c2cc3c(s2)C(C)(C)N(CCN2CCOCC2)C3=O)n1 + C=CC(=O)N1CCN(c2nc(=O)n(-c3c(C)ccnc3C(C)C)c3nc(-c4c(O)cccc4F)c(F)cc23)C(C)C1,153,253,153,361,< 31.6,63.7,56.7,38.6,23.9,16.5,17.1,64.5,61.5,47.3,63.7,54.4,50,55,46.1,41.5,"viability, T/C [15]: 27.2%; viability, T/C [16]: 20.4%; viability, T/C [17]: 17%; viability, T/C [20]: 41.3%; viability, T/C [21]: 31.3%; viability, T/C [22]: 18.4%; viability, T/C [23]: 24.6%; viability, T/C [26]: 52.1%; viability, T/C [27]: 34%; viability, T/C [28]: 25.2%; viability, T/C [29]: 25%; viability, T/C [32]: 33.8%; viability, T/C [33]: 28.2%; viability, T/C [34]: 27.6%; viability, T/C [35]: 34.4%"
COc1cc2nc(C)nc(NC(C)c3cc(N)cc(C(F)(F)F)c3)c2cc1OC1CCOC1 (stereo unspecified),,,,,,,,,,,,,,,,,,,,,"IC50 (compound alone, run of 07/12/2021): > 10000 nM and 9670 nM"
CN(C)C/C=C/C(=O)Nc1cc2c(Nc3ccc(F)c(Cl)c3)ncnc2cc1O[C@H]1CCOC1 + CC1OCC2(CCN(c3cnc(Sc4ccnc(N)c4Cl)c(N)n3)CC2)C1N,> 100,> 100,> 100,> 100,< 0.316,102,91.3,,,,,90.9,79.2,,105,104,56.7,47.1,49.4,46.8,"viability, T/C (second compound 0.1 µM, first compound 0.000316 µM): 112%; viability, T/C (second compound 0.1 µM, first compound 0.001 µM): 109%; viability, T/C (second compound 0.1 µM, first compound 0.00316 µM): 103%; viability, T/C (second compound 0.1 µM, first compound 0.01 µM): 95.4%; viability, T/C (second compound 0.316 µM, first compound 0.000316 µM): 97.6%; viability, T/C (second compound 0.316 µM, first compound 0.001 µM): 93.9%; viability, T/C (second compound 0.316 µM, first compound 0.00316 µM): 104%; viability, T/C (second compound 0.316 µM, first compound 0.01 µM): 86.2%; viability, T/C (second compound 1 µM, first compound 0.000316 µM): 110%; viability, T/C (second compound 1 µM, first compound 0.001 µM): 106%; viability, T/C (second compound 1 µM, first compound 0.00316 µM): 107%; viability, T/C (second compound 1 µM, first compound 0.01 µM): 102%; viability, T/C (second compound 3.16 µM, first compound 0.000316 µM): 60.8%; viability, T/C (second compound 3.16 µM, first compound 0.001 µM): 46.2%; viability, T/C (second compound 3.16 µM, first compound 0.00316 µM): 53.3%; viability, T/C (second compound 3.16 µM, first compound 0.01 µM): 53.3%; outcome (second compound 10 µM, first compound 0.000316 µM): inactive; outcome (second compound 10 µM, first compound 0.001 µM): inactive; viability, T/C (second compound 10 µM, first compound 0.00316 µM): 43.6%; outcome (second compound 10 µM, first compound 0.01 µM): inactive"
